We go through one compound from paper PMC13058460, “PET-MRI biomarkers reveal efficacy of a novel NLRP3 inhibitor in Parkinson’s disease models” (Brain, 2025).

Series [1] can be described thus: Single-dose pharmacokinetics (plasma and brain) in C57BL/6J mice. The class given is in vivo, mouse.
In a further series the target is T1, CYP1A2 (Homo sapiens, UniProt P05177).
T1 sequence (P05177 1-516): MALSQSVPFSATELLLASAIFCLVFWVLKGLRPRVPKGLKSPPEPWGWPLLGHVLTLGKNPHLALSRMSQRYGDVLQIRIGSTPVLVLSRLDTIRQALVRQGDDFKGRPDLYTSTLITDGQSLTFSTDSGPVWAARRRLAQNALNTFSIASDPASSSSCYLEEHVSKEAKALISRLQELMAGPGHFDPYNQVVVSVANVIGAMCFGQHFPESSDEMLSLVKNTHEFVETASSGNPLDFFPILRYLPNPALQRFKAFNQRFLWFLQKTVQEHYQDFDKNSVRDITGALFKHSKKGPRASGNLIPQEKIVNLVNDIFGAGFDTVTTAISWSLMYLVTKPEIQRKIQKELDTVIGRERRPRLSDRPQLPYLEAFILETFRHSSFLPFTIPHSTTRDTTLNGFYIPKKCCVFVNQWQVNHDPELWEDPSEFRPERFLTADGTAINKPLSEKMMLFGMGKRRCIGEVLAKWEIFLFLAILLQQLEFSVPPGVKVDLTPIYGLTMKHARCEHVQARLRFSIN
Nature of the series: CYP1A2 inhibition.

Another series addresses CYP2C9 (Homo sapiens, UniProt P11712). Nature of the series: CYP2C9 inhibition.
The target of the next series is CYP2D6 (Homo sapiens, UniProt P10635). Put plainly: CYP2D6 inhibition.
Chain of CYP2D6 (P10635 whole entry): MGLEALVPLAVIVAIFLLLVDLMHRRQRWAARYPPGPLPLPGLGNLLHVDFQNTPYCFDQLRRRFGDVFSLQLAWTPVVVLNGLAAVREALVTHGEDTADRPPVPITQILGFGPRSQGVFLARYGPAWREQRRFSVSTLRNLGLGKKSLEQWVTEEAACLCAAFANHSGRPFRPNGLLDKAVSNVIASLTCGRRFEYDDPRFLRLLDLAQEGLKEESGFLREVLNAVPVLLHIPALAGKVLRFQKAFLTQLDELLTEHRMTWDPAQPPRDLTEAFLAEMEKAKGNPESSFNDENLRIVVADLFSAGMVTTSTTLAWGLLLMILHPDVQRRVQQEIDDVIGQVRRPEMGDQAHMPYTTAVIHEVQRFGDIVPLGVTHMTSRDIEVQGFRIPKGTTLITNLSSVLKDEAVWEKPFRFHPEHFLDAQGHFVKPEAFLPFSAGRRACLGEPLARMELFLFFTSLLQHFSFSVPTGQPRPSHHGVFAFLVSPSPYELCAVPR
The next series addresses CYP3A4 (Homo sapiens, UniProt P08684). Nature of the series: CYP3A4 inhibition.
The target of series [2] is hERG (human ether-a-go-go K+ ion channel) (Homo sapiens, UniProt Q12809). Nature of the series: hERG QPatch assay. On the technique in general: Block of hERG is tested as a sign of cardiac risk.
Chain of hERG (human ether-a-go-go K+ ion channel) (Q12809 whole entry): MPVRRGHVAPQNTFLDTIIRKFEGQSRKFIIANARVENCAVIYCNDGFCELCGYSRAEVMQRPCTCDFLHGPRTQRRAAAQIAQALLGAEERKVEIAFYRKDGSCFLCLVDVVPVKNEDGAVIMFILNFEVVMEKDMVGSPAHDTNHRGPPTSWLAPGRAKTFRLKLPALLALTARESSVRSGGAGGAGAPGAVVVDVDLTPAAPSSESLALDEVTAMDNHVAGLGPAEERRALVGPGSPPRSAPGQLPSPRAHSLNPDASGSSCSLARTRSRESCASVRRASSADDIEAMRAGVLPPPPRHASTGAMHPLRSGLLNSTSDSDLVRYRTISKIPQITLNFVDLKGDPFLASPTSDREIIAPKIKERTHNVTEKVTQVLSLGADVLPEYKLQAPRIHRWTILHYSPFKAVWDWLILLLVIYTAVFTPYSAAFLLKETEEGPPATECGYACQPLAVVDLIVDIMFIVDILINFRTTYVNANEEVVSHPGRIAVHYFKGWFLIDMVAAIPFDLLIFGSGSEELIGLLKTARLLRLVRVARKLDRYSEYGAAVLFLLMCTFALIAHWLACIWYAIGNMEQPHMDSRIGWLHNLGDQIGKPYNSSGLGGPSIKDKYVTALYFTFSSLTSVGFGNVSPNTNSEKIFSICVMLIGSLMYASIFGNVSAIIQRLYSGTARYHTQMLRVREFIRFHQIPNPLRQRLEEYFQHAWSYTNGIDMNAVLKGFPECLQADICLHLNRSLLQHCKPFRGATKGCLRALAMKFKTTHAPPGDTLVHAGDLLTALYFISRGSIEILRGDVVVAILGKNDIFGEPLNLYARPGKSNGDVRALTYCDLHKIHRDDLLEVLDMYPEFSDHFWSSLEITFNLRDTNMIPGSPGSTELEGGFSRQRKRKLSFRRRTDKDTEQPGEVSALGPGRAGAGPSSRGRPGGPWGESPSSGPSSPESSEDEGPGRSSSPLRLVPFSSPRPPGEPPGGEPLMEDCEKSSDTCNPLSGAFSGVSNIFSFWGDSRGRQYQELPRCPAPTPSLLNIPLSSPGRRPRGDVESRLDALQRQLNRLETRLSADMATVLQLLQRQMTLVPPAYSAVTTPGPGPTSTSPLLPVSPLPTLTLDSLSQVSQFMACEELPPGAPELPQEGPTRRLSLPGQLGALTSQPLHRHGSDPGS
Experimental: (§1) LM – Liver microsome (half-life in minutes)
PPB – Plasma Protein Binding
(§2) PS – Plasma Stability (% remaining at 2 hours)
The nature of the next series: Human plasma stability. As to conditions: % remaining at 2 hours.
The nature of a further series: Mouse plasma stability. As to conditions: % remaining at 2 hours.
The nature of series [3]: Human plasma protein binding.
Experimental: as §1
PPB – Plasma Protein Binding
as §2
Series [4] in a line: Mouse plasma protein binding. The following applies: Mouse % PPB, plasma protein binding.
Experimental: as §1
PPB – Plasma Protein Binding
as §2
Series [5] can be described thus: Human liver microsome stability. As to conditions: liver microsomes.
Experimental: as §1
PPB – Plasma Protein Binding
as §2
Series [6] in a line: Mouse liver microsome stability. The following applies: liver microsomes. A general note: Microsomes from liver hold many membrane-bound enzymes, among them those of drug oxidation.
Experimental: as §1
PPB – Plasma Protein Binding
as §2

Chain of CYP2C9 (P11712 whole entry): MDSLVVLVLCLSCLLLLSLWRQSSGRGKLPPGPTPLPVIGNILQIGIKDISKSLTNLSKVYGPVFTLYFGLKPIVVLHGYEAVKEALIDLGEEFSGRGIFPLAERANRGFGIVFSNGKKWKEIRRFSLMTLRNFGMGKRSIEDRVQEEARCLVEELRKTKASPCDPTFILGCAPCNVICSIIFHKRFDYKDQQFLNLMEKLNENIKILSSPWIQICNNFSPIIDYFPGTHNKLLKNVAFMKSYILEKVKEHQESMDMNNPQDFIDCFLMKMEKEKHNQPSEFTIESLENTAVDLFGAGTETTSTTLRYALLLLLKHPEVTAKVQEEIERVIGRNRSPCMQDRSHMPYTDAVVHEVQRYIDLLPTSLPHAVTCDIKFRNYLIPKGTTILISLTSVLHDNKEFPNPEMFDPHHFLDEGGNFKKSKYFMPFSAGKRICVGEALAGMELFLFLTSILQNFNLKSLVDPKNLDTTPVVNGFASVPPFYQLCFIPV
Chain of CYP3A4 (P08684 whole entry): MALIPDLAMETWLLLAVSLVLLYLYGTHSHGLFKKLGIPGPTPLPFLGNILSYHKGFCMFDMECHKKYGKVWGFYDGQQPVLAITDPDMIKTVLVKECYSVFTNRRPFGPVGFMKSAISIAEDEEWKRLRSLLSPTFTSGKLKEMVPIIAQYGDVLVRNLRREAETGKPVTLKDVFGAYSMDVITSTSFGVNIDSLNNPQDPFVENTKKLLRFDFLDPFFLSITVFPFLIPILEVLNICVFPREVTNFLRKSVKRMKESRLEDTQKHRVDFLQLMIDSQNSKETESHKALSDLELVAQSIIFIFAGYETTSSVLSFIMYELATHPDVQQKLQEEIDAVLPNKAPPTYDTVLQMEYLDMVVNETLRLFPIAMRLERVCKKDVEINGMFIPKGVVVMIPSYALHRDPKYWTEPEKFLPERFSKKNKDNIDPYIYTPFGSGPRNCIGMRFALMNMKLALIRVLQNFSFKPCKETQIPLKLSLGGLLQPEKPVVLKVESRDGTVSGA
Experimental for CYP2C9: as §1
PPB – Plasma Protein Binding
as §2
Experimental for CYP2D6: as §1
PPB – Plasma Protein Binding
as §2
Experimental for CYP3A4: as §1
PPB – Plasma Protein Binding
as §2
Experimental for Human plasma stability: as §1
PPB – Plasma Protein Binding
as §2
Experimental for Mouse plasma stability: as §1
PPB – Plasma Protein Binding
as §2

`CC(C)(O)c1coc(S(=O)(=O)NC(=O)Nc2c3c(cc4c2CCC4)CCC3)c1` [MCC950, reference compound]: the “Tolerability in single-dose pharmacokinetic studies” value in [1] (fasted male C57BL/6J mice, i.v. 4 mg/kg or oral 20 mg/kg) is “well tolerated”. The same compound displayed a bioavailability in series [1] (male, C57BL/6J, mouse, plasma, oral, mice, p.o. 20 mg/kg vs i.v. 4 mg/kg) of 71%. Besides, the Oral half-life in series [1] (mice, p.o. 20 mg/kg, plasma) worked out at 2.4 h. Besides, the half-maximal inhibitory concentration (IC50) is 20 µM against CYP1A2, 43 µM at CYP2C9, more than 50 µM against CYP2D6 and more than 50 µM against CYP3A4. The compound also returned an inhibition at 30 µM in series [2] of 21 ± 4.3%. In addition, the “Human % PS” value in “Human plasma stability” came out at 96%. In addition, the “Mouse % PS” value in the series “Mouse plasma stability” is 99%. The fraction unbound in [3] was 0.005; in series [4], 0.006. Further, the half-life in [5] and in series [6] was more than 2.42 h each time.

By bioavailability is commonly meant dose-corrected exposure relative to a reference, in per cent. Low values mean poor availability, high ones good availability. The IC50 is the midpoint of a concentration-inhibition curve. The inhibition is how much of the control response was suppressed. A low value points to a response near the control. Broadly, the fraction unbound is the share of the substance not bound to proteins or other matrix. High values mean much free substance, low ones little free substance. As a reminder, the half-life is how long it takes for the measured level to halve. A high value points to slow decline.
